Experimental data published in ChEMBL document CHEMBL3102801, “Synthesis and antiproliferative activity of new derivatives containing the polycyclic system 5,7:7,13-dimethanopyrazolo[3,4-b]pyrazolo[3',4':2,3]azepino[4,5-f]azocine” (Eur J Med Chem, 2014).

Tests used:
[1] = test system: U-251; test: Growth inhibition of human U251 cells after 48 hrs by sulforhodamine B assay; format: functional; details: U-251, 48 h
[2] = test system: HCT-116; test: Cell cycle arrest in human HCT116 cells assessed as accumulation of G2-M phase at 5 uM after 48 hrs using propidium iodide staining by flow cytometric analysis (reference value: 19.2%); format: functional
[3] = Cytotoxicity against human HuDe cells after 48 hrs by sulforhodamine B assay; format: cell-based
[4] = test system: NCI-H460; test: Growth inhibition of human NCI-H460 cells after 48 hrs by sulforhodamine B assay; format: functional; details: NCI-H460, 48 h
[5] = Therapeutic index, ratio of IC50 for human HeDe cells to IC50 for human MDA-MB-231 cells; format: cell-based; details: HeDe cells versus MDA-MB-231 cells, read-out: TI
[6] = test system: ACHN; test: Growth inhibition of human ACHN cells after 48 hrs by sulforhodamine B assay; format: functional
[7] = test system: MDA-MB-231; test: Cell cycle arrest in human MDA-MB-231 cells assessed as accumulation of G2-M phase at 10 uM after 48 hrs using propidium iodide staining by flow cytometric analysis (reference value: 27.5%); format: functional
[8] = test system: SK-MEL-5; test: Growth inhibition of human SK-MEL-5 cells after 48 hrs by sulforhodamine B assay; format: functional; details: SK-MEL-5, 48 h
[9] = test system: HCT-116; test: Cell cycle arrest in human HCT116 cells assessed as accumulation of sub-G0-G1 phase at 10 uM after 48 hrs using propidium iodide staining by flow cytometric analysis (reference value: 15.2%); format: functional
[10] = test system: HCT-116; test: Cell cycle arrest in human HCT116 cells assessed as accumulation of G0-G1 phase at 5 uM after 48 hrs using propidium iodide staining by flow cytometric analysis (reference value: 45.7%); format: functional
[11] = test system: MDA-MB-231; test: Cell cycle arrest in human MDA-MB-231 cells assessed as accumulation of G0-G1 phase at 5 uM after 48 hrs using propidium iodide staining by flow cytometric analysis (reference value: 42.2%); format: functional
[12] = test system: SK-OV-3; test: Growth inhibition of human SKOV3 cells after 48 hrs by sulforhodamine B assay; format: functional; details: SK-OV-3, 48 h
[13] = test system: HOP-62; test: Growth inhibition of human HOP62 cells after 48 hrs by sulforhodamine B assay; format: functional; details: HOP-62, 48 h
[14] = test system: 786-0; test: Growth inhibition of human 786-0 cells after 48 hrs by sulforhodamine B assay; format: functional; details: 786-0, 48 h
[15] = test system: MDA-MB-435; test: Growth inhibition of human MDA-MB-435 cells after 48 hrs by sulforhodamine B assay; format: functional; details: MDA-MB-435, 48 h
[16] = test system: HCT-116; test: Cell cycle arrest in human HCT116 cells assessed as accumulation of sub-G0-G1 phase at 5 uM after 48 hrs using propidium iodide staining by flow cytometric analysis (reference value: 15.2%); format: functional
[17] = Growth inhibition of human OVCAR5 cells after 48 hrs by sulforhodamine B assay; format: functional; details: OVCAR-5, 48 h
[18] = target: T1, Retinoblastoma-associated protein (Homo sapiens) (UniProt P06400); test: Inhibition of pRb p110 phosphorylation in human HCT116 cells after 48 hrs by Western blotting; format: cell-based; details: HCT-116
T1 sequence (whole entry): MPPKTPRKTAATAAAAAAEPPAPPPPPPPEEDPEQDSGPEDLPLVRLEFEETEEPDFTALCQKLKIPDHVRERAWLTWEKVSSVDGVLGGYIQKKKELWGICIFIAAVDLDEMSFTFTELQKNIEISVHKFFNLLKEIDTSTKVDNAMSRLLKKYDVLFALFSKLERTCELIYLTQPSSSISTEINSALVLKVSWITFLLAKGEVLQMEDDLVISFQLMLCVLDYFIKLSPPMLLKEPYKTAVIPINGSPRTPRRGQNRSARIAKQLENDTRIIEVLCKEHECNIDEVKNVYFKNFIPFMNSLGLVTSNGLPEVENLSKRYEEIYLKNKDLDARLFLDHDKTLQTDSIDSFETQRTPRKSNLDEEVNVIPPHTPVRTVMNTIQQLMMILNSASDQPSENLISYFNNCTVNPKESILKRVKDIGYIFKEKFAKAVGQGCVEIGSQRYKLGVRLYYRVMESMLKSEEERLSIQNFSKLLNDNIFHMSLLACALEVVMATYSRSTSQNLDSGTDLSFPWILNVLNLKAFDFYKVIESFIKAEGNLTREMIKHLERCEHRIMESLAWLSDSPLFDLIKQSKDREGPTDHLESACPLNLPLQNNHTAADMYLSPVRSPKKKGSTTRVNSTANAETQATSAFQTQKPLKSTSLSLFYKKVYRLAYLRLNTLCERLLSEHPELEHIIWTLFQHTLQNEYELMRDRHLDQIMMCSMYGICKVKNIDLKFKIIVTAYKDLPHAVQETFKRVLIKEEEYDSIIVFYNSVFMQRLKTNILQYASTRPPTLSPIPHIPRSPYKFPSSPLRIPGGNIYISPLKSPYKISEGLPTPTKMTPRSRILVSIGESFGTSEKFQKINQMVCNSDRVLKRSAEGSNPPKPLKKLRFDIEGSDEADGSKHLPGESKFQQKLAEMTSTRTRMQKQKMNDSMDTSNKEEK

[19] = test system: HT-29; test: Growth inhibition of human HT-29 cells after 48 hrs by sulforhodamine B assay; format: functional; details: HT-29, 48 h
[20] = test system: MCF7; test: Growth inhibition of human MCF7 cells after 48 hrs by sulforhodamine B assay; format: functional; details: MCF7, 48 h
[21] = test system: DU-145; test: Growth inhibition of human DU145 cells after 48 hrs by sulforhodamine B assay; format: functional; details: DU-145, 48 h
[22] = test system: KM12; test: Growth inhibition of human KM12 cells after 48 hrs by sulforhodamine B assay; format: functional; details: KM12, 48 h
[23] = test system: NCI-H23; test: Growth inhibition of human NCI-H23 cells after 48 hrs by sulforhodamine B assay; format: functional; details: NCI-H23, 48 h
[24] = test system: MDA-MB-231; test: Growth inhibition of human MDA-MB-231 cells after 48 hrs by sulforhodamine B assay; format: functional; details: MDA-MB-231, 48 h
[25] = test system: MDA-MB-468; test: Growth inhibition of human MDA-MB-468 cells after 48 hrs by sulforhodamine B assay; format: functional; details: MDA-MB-468, 48 h
[26] = test system: A498; test: Growth inhibition of human A498 cells after 48 hrs by sulforhodamine B assay; format: functional; details: A498, 48 h
[27] = test system: Malme-3M; test: Growth inhibition of human MALME-3M cells after 48 hrs by sulforhodamine B assay; format: functional
[28] = test system: SR; test: Growth inhibition of human SR cells after 48 hrs by sulforhodamine B assay; format: functional
[29] = Growth inhibition of human RXF393 cells after 48 hrs by sulforhodamine B assay; format: functional; details: RXF 393, 48 h
[30] = Growth inhibition of human OVCAR4 cells after 48 hrs by sulforhodamine B assay; format: functional; details: OVCAR-4, 48 h
[31] = test system: RPMI-8226; test: Growth inhibition of human RPMI8226 cells after 48 hrs by sulforhodamine B assay; format: functional; details: RPMI-8226, 48 h
[32] = test system: LOX IMVI; test: Growth inhibition of human LOXIMVI cells after 48 hrs by sulforhodamine B assay; format: functional
[33] = Growth inhibition of human Hs 578T cells after 48 hrs by sulforhodamine B assay; format: functional

Question: What does the source list for `C=C1c2c(C)nn(-c3ccc(OC)cc3)c2N(C)C23CC1C1(C)c4c(C)nn(-c5ccc(OC)cc5)c4N(C)C(C)(CC12)C3` (stereo not drawn)?
Answer: GI50 [1]: 2.67 µM; Activity [2]: 12.3%; IC50 [3]: 76 µM; GI50 [4]: 2.49 µM; selectivity ratio [5]: 24.4; GI50 [6]: 3.3 µM; Activity [7]: 17.8%; GI50 [8]: 1.73 µM; Activity [9]: 13.5%; Activity [10]: 59%; Activity [11]: 53.5%; GI50 [12]: 3.39 µM; GI50 [13]: 4.28 µM; GI50 [14]: 4.23 µM; GI50 [15]: 3.4 µM; Activity [16]: 14.3%; GI50 [17]: 11.3 µM; inhibition [18]: Dose-dependent effect; GI50 [19]: 3.24 µM; GI50 [20]: 2.69 µM; GI50 [21]: 4.38 µM; GI50 [22]: 3.75 µM; GI50 [23]: 3.86 µM; GI50 [24]: 3.11 µM; GI50 [25]: 2.5 µM; GI50 [26]: 2.47 µM; GI50 [27]: 3.24 µM; GI50 [28]: 3.16 µM; GI50 [29]: 1.9 µM; GI50 [30]: 3.56 µM; GI50 [31]: 1.87 µM; GI50 [32]: 2.24 µM; GI50 [33]: 6.24 µM
